Among the data in ChEMBL document CHEMBL5113492, “Design, synthesis, and biological evalution of bifunctional inhibitors against Hsp90-HDAC6 interplay” (Eur J Med Chem, 2022) are inhibition and Activity values, retold here.

Each structure is given as a SMILES string. Active and inactive are the calls of the source. The rule behind the calls is not given here.

Data set [1] concerns the target T1, Heat shock protein HSP90 (Homo sapiens) (UniProt P07900+P08238). In words: Inhibition of HSP90 in human NCI-H1975 cells assessed as downregulation of EGFR expression at 0.05 to 2 uM incubated for 24 hrs by western blot analysis. As to conditions: dose 0.05-2 µM, DDE = dose-dependent effect. It is filed as cell-based.
Data set [2] concerns the target T1, Heat shock protein HSP90 (Homo sapiens). The data set can be described thus: Inhibition of HSP90 in human NCI-H1975 cells assessed as downregulation of Akt expression at 0.05 to 2 uM incubated for 24 hrs by western blot analysis. It is filed as cell-based. Particulars: dose 0.05-2 µM, DDE = dose-dependent effect. (In western blotting, separated proteins are transferred to a membrane and probed.)

For data set [3] the target is unchanged. In words: Inhibition of HSP90 in human NCI-H1975 cells assessed as upregulation of HSP70 expression at 0.05 to 2 uM incubated for 24 hrs by western blot analysis. It is filed as cell-based. As to conditions: dose 0.05-2 µM, DDE = dose-dependent effect.
In data set [4] the target is T2, Protein deacetylase HDAC6 (Homo sapiens) (UniProt Q9UBN7).
T2 sequence (whole entry): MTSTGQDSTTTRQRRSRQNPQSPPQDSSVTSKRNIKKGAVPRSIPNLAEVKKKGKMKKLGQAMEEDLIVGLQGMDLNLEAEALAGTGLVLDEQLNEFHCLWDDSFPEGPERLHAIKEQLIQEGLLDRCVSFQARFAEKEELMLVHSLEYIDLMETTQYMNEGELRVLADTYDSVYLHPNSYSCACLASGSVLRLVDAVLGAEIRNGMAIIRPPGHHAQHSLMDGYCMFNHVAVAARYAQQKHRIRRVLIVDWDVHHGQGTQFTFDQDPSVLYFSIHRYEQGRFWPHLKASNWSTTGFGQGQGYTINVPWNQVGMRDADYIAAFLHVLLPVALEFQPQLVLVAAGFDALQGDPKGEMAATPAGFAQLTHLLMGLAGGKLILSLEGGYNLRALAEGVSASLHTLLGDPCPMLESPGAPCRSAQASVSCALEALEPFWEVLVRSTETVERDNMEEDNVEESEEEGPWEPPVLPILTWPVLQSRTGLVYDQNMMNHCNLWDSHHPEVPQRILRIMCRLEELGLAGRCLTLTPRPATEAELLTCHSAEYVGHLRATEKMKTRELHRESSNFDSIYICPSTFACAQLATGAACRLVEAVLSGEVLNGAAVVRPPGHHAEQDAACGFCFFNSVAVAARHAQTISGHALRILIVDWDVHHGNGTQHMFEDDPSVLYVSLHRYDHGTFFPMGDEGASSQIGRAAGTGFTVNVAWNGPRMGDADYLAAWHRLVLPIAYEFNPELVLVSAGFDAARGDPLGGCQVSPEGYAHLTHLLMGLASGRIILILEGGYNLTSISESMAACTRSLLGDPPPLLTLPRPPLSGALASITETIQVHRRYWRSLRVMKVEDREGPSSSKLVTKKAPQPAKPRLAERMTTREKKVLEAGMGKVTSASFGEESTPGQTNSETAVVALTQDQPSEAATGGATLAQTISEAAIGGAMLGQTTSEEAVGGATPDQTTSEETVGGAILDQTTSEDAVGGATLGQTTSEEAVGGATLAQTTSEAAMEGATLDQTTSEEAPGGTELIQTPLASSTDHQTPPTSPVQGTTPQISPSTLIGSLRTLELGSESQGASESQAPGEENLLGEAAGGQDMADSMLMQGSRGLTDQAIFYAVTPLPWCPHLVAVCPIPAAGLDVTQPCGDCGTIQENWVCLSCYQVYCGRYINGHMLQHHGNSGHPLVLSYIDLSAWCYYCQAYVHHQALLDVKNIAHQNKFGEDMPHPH
In words: Inhibition of HDAC6 in human NCI-H1975 cells assessed as downregulation of HDAC6 expression at 0.05 to 2 uM incubated for 24 hrs by western blot analysis. As to conditions: dose 0.05-2 µM, DDE = dose-dependent effect. In kind it is cell-based.

Data set [5] concerns the target T2, Protein deacetylase HDAC6 (Homo sapiens). The data set can be described thus: Inhibition of HDAC6 in human NCI-H1975 cells assessed as increase in acetylation of alpha tubulin at 1 uM incubated for 24 hrs by western blot analysis. It is filed as cell-based.
Data set [6] has as its target T1, Heat shock protein HSP90 (Homo sapiens). The data set can be described thus: Inhibition of HSP90 in human NCI-H1975 cells assessed as downregulation of Her2 expression at 2 uM incubated for 24 hrs by western blot analysis. It is filed as cell-based.
Data set [7] has as its target Histone deacetylase 1 (Homo sapiens) (UniProt Q13547). In words: Inhibition of HDAC1 in human NCI-H1975 cells assessed as increase in acetylation of Histone H3 at 2 uM incubated for 24 hrs by western blot analysis. In kind it is cell-based.
The subject of data set [8] is NCI-H1975. In words: Induction of apoptosis in human NCI-H1975 cells assessed as early apoptotic cells at 2 uM incubated for 24 hrs by Annexin-V/propidium iodide staining based flow cytometry analysis. In kind it is functional. In general terms: A flow cytometer gives signals particle by particle.
Data set [9] has as its system NCI-H1975. The data set can be described thus: Induction of apoptosis in human NCI-H1975 cells assessed as late apoptotic cells at 2 uM incubated for 24 hrs by Annexin-V/propidium iodide staining based flow cytometry analysis. It is filed as functional.
Data set [10] has as its system NCI-H1975. In words: Induction of apoptosis in human NCI-H1975 cells assessed as caspase-3 cleavage at 0.05 to 2 uM incubated for 24 hrs by western blot analysis. In kind it is functional, cell-based. As to conditions: dose 0.05-2 µM, DDE = dose-dependent effect.
Data set [11] relates to NCI-H1975. The data set can be described thus: Induction of apoptosis in human NCI-H1975 cells assessed as caspase-8 cleavage at 0.05 to 2 uM incubated for 24 hrs by western blot analysis. It is filed as functional, cell-based. As to conditions: dose 0.05-2 µM, DDE = dose-dependent effect.
Data set [12] relates to NCI-H1975. In words: Induction of apoptosis in human NCI-H1975 cells assessed as PARP cleavage at 0.05 to 2 uM incubated for 24 hrs by western blot analysis. In kind it is functional, cell-based. Particulars: dose 0.05-2 µM, DDE = dose-dependent effect.
For data set [13], the target named is T2, Protein deacetylase HDAC6 (Homo sapiens). The data set can be described thus: Inhibition of HDAC6 in human NCI-H1975 cells assessed as increase in acetylation of alpha tubulin at 1 uM incubated for 24 hrs by DAPI staining based immunofluorescence microscopy. It is filed as cell-based.
Data set [14] has the same target. In words: Inhibition of HDAC6 in human NCI-H1975 cells assessed as microtubule polymerization at 1 uM incubated for 24 hrs by DAPI staining based immunofluorescence microscopy. In kind it is cell-based.
The test system of data set [15] is Mus musculus. The data set can be described thus: In vivo inhibition of HSP90 in human NCI-H1975 cells xenografted with NSG mouse assessed as downregulation of EGFR expression at 25 mg/kg,ip measured after 6 weeks by immunohistochemistry analysis. It is filed as functional, organism-based. (In xenograft studies the graft and the host belong to different species.)

The subject of data set [16] is Mus musculus. In words: In vivo inhibition of HDAC1 in human NCI-H1975 cells xenografted with NSG mouse assessed as increase in acetylation of Histone H3 at 25 mg/kg,ip measured after 6 weeks by immunohistochemistry analysis. In kind it is functional, organism-based.
Data set [17] is described as follows: Toxicity in NSG mouse xenografted with human NCI-H1975 cells assessed as histological abnormalities in ocular region at 25 mg/kg,ip measured after 6 weeks by H and E staining based assay. It is filed as organism-based. Particulars: in vivo, 1008 h.
The nature of data set [18]: Toxicity in NSG mouse xenografted with human NCI-H1975 cells assessed as change in number of retina at 25 mg/kg,ip measured after 6 weeks by H and E staining based assay. In kind it is organism-based. As to conditions: in vivo, 1008 h.
Data set [19] is described as follows: Toxicity in NSG mouse xenografted with human NCI-H1975 cells assessed as change in structure of retina at 25 mg/kg,ip measured after 6 weeks by H and E staining based assay. In kind it is organism-based. Particulars: in vivo, 1008 h.
Data set [20] in a line: Toxicity in NSG mouse xenografted with human NCI-H1975 cells assessed as change in number of retina at 50 mg/kg,ip measured after 6 weeks by H and E staining based assay. In kind it is organism-based. Particulars: in vivo, 1008 h.
The nature of data set [21]: Toxicity in NSG mouse xenografted with human NCI-H1975 cells assessed as change in body weight at 25 mg/kg,ip measured after 6 weeks. Particulars: in vivo, 1008 h. In kind it is organism-based.

Histone deacetylase 1 (Homo sapiens), sequence (Q13547 whole entry): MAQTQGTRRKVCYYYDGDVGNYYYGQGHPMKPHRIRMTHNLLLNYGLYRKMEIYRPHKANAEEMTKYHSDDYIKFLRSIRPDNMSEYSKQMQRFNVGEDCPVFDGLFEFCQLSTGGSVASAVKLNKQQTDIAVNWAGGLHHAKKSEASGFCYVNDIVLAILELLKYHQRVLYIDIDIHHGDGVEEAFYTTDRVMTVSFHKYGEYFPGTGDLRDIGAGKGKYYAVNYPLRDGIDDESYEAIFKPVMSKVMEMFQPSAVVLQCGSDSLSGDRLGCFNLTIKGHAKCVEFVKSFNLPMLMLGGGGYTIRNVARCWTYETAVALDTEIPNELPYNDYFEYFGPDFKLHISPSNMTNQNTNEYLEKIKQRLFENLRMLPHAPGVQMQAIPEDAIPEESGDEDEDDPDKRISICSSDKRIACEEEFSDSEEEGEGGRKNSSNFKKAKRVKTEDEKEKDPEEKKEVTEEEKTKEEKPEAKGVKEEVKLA

Take `CC(C)c1cc(C(=O)N(C)Cc2ccc(C(=O)NO)cc2)c(O)cc1O`: the inhibition entry in data set [1], in [2], in [3] and in [4] was “Dde” each time. Also, the inhibition entry in [5], in [6], in data set [7], in data set [13], in data set [14] and in [15] was “Active” throughout. The inhibition entry in [16] is “Active”. The Activity in data set [8] was 16.78%; in data set [9], 9.01%; in data set [10] it was “Dde”; in data set [11], “Dde”; in [12], “Dde”; in [17], “Non-Toxic”. The Activity entry in [18], in [19], in data set [20] and in [21] was “Non-Toxic” throughout.
